Earlier results in publication PMC4826315 (Journal of molecular biology, 2016).

Assays:
retinoblastoma tumors = settings: mouse model system
Mdm2 = settings: read-out: IC50, inhibition of p53 binding to Mdm2; FP assay

For `COc1ccc(C2=N[C@@H](c3ccc(Cl)cc3)[C@@H](c3ccc(Cl)cc3)N2C(=O)N2CCNC(=O)C2)c(OC(C)C)c1` [Nutlin-3a], the “effect on retinoblastoma tumors” value (retinoblastoma tumors) is given as “caused regression of retinoblastoma tumors” and the IC50 (Mdm2) is given as […].
